Experimental findings from US20250090540A1, “PI3K-ALPHA INHIBITORS AND METHODS OF USE THEREOF” (Relay Therapeutics, Inc., priority 2021, published 2025) are described below.

The structures appear in SMILES notation.

The first experiment deals with H1047R PIK3CA enzyme (Homo sapiens, UniProt P42336, H1047R). Nature of the experiment: ADP-Glo Biochemical PIK3CA Kinase Assay.
H1047R PIK3CA enzyme, sequence (P42336 whole entry H1047R): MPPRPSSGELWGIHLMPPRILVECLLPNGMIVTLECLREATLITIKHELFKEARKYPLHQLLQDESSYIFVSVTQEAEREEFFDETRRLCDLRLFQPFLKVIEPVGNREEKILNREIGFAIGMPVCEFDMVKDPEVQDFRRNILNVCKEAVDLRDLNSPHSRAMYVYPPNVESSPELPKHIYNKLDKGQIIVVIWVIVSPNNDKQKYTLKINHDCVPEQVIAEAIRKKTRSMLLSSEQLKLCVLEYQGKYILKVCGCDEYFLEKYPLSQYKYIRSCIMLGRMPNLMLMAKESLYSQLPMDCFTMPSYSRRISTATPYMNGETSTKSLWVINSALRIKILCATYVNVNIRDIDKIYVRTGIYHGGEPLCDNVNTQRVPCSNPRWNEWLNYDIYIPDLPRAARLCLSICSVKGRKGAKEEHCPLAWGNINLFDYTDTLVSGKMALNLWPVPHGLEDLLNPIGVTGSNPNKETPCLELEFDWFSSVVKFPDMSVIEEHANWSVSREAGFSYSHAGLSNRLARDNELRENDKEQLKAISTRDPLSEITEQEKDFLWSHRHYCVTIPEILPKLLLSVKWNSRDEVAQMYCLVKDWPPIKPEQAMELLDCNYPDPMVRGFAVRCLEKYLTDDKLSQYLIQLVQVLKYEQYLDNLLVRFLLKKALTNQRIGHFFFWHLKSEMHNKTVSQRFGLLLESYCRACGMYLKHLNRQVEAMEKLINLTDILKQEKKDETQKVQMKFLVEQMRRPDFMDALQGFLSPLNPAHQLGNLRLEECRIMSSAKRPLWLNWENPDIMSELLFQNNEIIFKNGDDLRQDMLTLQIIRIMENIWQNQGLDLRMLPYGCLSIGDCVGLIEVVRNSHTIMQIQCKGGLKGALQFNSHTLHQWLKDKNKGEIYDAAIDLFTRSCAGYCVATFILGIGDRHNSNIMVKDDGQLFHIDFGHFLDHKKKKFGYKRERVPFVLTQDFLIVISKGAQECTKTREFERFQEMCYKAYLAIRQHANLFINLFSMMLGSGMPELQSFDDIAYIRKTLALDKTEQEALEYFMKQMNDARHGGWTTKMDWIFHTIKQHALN
H1047R PIK3CA enzyme, sequence (P27986 whole entry partner): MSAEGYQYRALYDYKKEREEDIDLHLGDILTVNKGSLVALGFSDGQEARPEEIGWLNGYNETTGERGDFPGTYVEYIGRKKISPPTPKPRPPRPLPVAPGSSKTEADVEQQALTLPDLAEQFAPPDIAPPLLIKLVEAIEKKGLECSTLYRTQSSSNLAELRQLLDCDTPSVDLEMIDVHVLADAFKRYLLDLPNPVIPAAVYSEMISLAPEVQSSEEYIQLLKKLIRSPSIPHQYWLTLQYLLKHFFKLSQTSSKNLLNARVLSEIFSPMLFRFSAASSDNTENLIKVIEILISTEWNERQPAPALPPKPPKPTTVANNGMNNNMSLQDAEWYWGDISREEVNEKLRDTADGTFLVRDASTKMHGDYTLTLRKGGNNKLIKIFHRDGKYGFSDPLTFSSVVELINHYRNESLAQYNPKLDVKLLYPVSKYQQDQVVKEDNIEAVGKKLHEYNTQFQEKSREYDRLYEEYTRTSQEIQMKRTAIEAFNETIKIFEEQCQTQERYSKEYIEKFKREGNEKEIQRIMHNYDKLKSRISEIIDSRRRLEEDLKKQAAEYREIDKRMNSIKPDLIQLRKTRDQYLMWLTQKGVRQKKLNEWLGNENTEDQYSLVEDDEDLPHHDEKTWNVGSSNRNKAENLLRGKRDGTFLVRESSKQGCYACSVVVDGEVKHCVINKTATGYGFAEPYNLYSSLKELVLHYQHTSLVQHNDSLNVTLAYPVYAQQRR
Conditions: not given
On the procedure:
Compounds to be assayed were plated in 16 doses of 1:2 serial dilutions (20 nL volume each well) on a 1536-well plate, and the plate warmed to room temperature. PIK3CA enzyme (e.g. H1047R, E542K, E545K, or wild-type) (1 μL of 2 nM solution in Enzyme Assay Buffer (comprising 50 mM HEPES pH 7.4, 50 mM NaCl, 6 mM MgCl2, 5 mM DTT and 0.03% CHAPS)) was added and shaken for 10 seconds and preincubated for 30 minutes. To the well was added 1 μL of 200 μM ATP and 20 μM of diC8-PIP2 in Substrate Assay Buffer (50 mM HEPES pH7.4, 50 mM NaCl, 5 mM DTT and 0.03% CHAPS) to start the reaction, and the plate was shaken for 10 seconds, then spun briefly at 1500 rpm, and then incubated for 60 minutes at room temperature. The reaction was stopped by adding 2 μL of ADP-Glo reagent (Promega), and spinning briefly at 1500 rpm, and then incubating for 40 minutes. ADP-Glo Detection reagent (Promega) was added and the plate spun briefly at 1500 rpm, then incubated for 30 minutes.
With `Cc1ccccc1Nc1cnccc1NC(=O)c1csc2ccccc12` [I-221], the IC50 is 1 to 10 µM. `CNC(=O)c1cnc(Nc2ccccc2C)c(NC(=O)c2cccc(C(F)(F)F)c2)c1` [I-66]: the IC50 lay in the range of 1 to 10 µM. Regarding `CNC(=O)c1cnc(Nc2ccccc2C)c(NC(=O)Cc2ccccc2S(C)(=O)=O)c1` [I-306], the IC50 lay in the range of 10 to 100 µM. In turn, `CNC(=O)c1cnc(Nc2ccccc2)c(N)c1` [I-31] displayed an IC50 of 10 to 100 µM. Same read-out and setting: the figure for `CNC(=O)c1cnc(Nc2ccccc2C)c(NC(=O)C2(c3ccccc3)CC2(F)F)c1` (stereo not shown) [I-342] is 10 to 100 µM; for `Cc1ccccc1Nc1ncc(-c2ccc(NC(=O)OC(C)(C)C)cc2)cc1NC(=O)c1cc(F)cc(C(F)(F)F)c1` [I-80] it is 1 to 10 µM; for `CNC(=O)c1cnc(Nc2ccccc2C)c(NC(=O)c2cn3c(C(F)(F)F)cccc3n2)c1` [I-380] it is 10 to 100 µM. Still for that read-out and setting: to `O=C(Nc1cccnc1NC1CCNCC1)c1csc2ccccc12` [I-152] belongs 10 to 100 µM. Compound `COC(=O)c1cnc(Nc2ccc(C)cc2)c(NC(=O)c2csc3ccccc23)c1` [I-206] showed an IC50 of 10 to 100 µM. On to `O=C(Nc1cccnc1NCc1ccccc1)c1csc2ccccc12` [I-133], for which the IC50 was 10 to 100 µM. Consider `CNC(=O)c1cnc(Nc2ccccc2C)c(NC(=O)c2ccnc3ccccc23)c1` [I-157], for which the IC50 lay in the range of 10 to 100 µM. `CNC(=O)c1cnc(Nc2ccccc2C)c(NC(=O)c2cn3c(Cl)cccc3n2)c1` [I-377] registered an IC50 of 10 to 100 µM. In turn, `CC1CCc2ccccc2N1c1ncc(C(=O)NCc2nccs2)cc1NC(=O)c1csc2ccccc12` (stereo not shown) [I-217] registered an IC50 of 1 to 10 µM.

As to `Cc1ccccc1Nc1ncc(C(=O)Nc2ccncn2)cc1NC(=O)c1cc(F)cc(C(F)(F)F)c1` [I-262], the IC50 lay in the range of 0.5 to 1 µM. `CNC(=O)c1cnc(Nc2ccccc2C)c(NC(=O)Cc2c(F)ccc(F)c2F)c1` [I-164] returned an IC50 of 10 to 100 µM. With `Cc1ccccc1Nc1ncc(-c2cnn(C3CCOCC3)c2)cc1NC(=O)c1cc(F)cc(C(F)(F)F)c1` [I-88], the IC50 was in the range of 0.5 to 1 µM. `CN1CC[C@H](NC(=O)c2cnc(N3CCOc4ccccc43)c(NC(=O)c3csc4ccccc34)c2)C1` (racemic) [I-349] had an IC50 of 0.5 to 1 µM. In turn, `Cc1ccccc1Nc1ncc(-c2cnn(C)c2)cc1NS(=O)(=O)c1ccccc1` [I-172] came in with an IC50 of 10 to 100 µM. As to `Cc1ccccc1Nc1ncc(-c2cnn(C)c2)cc1NC(=O)c1cccc2ccccc12` [I-113], the IC50 fell in the range of 10 to 100 µM. Consider `CNC(=O)c1cnc(Nc2ccccc2C)c(NCc2cc(F)cc(C(F)(F)F)c2)c1` [I-85], for which the IC50 lay within 10 to 100 µM. For the compound `CNC(=O)c1cnc(Nc2ccccc2C)c(NC(=O)c2cn(C)c3ccccc23)c1` [I-207], the IC50 was in the range of 1 to 10 µM. Take `CNC(=O)c1cnc(N[C@@H]2CCCC[C@@H]2CO)c(NC(=O)c2cc(F)cc(C(F)(F)F)c2)c1` (racemic) [I-812]: the IC50 lay within 10 to 100 µM. `Cc1ccccc1Nc1ncc(C(=O)Nc2cc[nH]n2)cc1NC(=O)c1cc(F)cc(C(F)(F)F)c1` [I-230] had an IC50 of 1 to 10 µM. `CNC(=O)c1cnc(Nc2ccccc2C)c(NC(=O)c2cc(F)c3ccccc3c2)c1` [I-322] gave an IC50 of 10 to 100 µM. On to `Cc1ccccc1Nc1ncc(-c2cnn(C)c2)cc1NC(=O)c1cccc(Br)c1` [I-99], for which the IC50 lay in the range of 1 to 10 µM. The compound `CNC(=O)c1cnc(Nc2ccccc2C)c(NC(=O)c2cn3ccccc3n2)c1` [I-374] had an IC50 of 10 to 100 µM. For `Cc1ccccc1Nc1ncc(NCC(=O)O)cc1NC(=O)c1cc(F)cc(C(F)(F)F)c1` [I-179], the IC50 was in the range of 1 to 10 µM.

Regarding `CNC(=O)c1cnc(N2C[C@H]3C[C@H]3c3ccccc32)c(NC(=O)c2csc3ccccc23)c1` (racemic) [I-253], the IC50 is 1 to 10 µM.

`CNC(=O)c1cnc(Nc2ccccc2C)c(NC(=O)c2ccc(F)c(F)c2OC)c1` [I-378] gave an IC50 of 10 to 100 µM.

On to `CC1CN(c2ncc(C(=O)N[C@H](C)c3cccnc3)cc2NC(=O)c2csc3ccccc23)c2ccccc2O1` (mixture of isomers) [I-336], for which the IC50 was in the range of 1 to 10 µM. `CNC(=O)c1cnc(Nc2ccccc2C)c(NC(=O)[C@H](N)C2CCCCC2)c1` (stereo in doubt) [I-142] registered an IC50 of 10 to 100 µM. The compound `CNC(=O)c1cnc(NC(CO)CCO)c(NC(=O)c2cc(F)cc(C(F)(F)F)c2)c1` (stereo not shown) [I-814] gave an IC50 of 10 to 100 µM. Still for that read-out and setting: the figure for `Cc1ccccc1Nc1ncc(NS(C)(=O)=O)cc1NC(=O)c1cc(F)cc(C(F)(F)F)c1` [I-62] is 1 to 10 µM; for `CNC(=O)c1cnc(Nc2ccccc2C)c(NC(=O)Cc2cc(C)cc(F)c2)c1` [I-373] it is 10 to 100 µM; for `CNC(=O)c1cnc(Nc2ccccc2C)c(N(S(=O)(=O)c2ccccc2)S(=O)(=O)c2ccccc2)c1` [I-13] it is 10 to 100 µM. The compound `Cc1cnnc(NC(=O)c2cnc(Nc3ccccc3C)c(NC(=O)c3cc(F)cc(C(F)(F)F)c3)c2)c1` [I-264] returned an IC50 of 1 to 10 µM. `O=C(N[C@@H]1CCC[C@H](O)[C@H]1c1cc(F)ccc1Cl)c1cc(F)cc(C(F)(F)F)c1` (racemic) [I-823, N-[(1R,2S,3S)-2-(2-chloro-5-fluorophenyl)-3-hydroxycyclohexyl]-3-fluoro-5-(trifluoromethyl)benzamide] yielded an IC50 of 10 to 100 µM. The same measure, in the same setting: the figure for `Cc1ccccc1Nc1ncc(C(=O)NS(C)(=O)=O)cc1NC(=O)c1cc(F)cc(C(F)(F)F)c1` [I-69] is 10 to 100 µM. For `CNC(=O)c1cnc(Nc2cc(F)ccc2Cl)c(NC(=O)c2cc(F)cc(C(F)(F)F)c2)c1` [I-810], the IC50 lay within 10 to 100 µM.

Staying with this experiment, now noted: ADP-Glo biochemical PIK3CA kinase assay.
For the compound `O=C(N[C@H]1CCC[C@H]1N1CCOc2ccccc21)c1cc(F)cc(C(F)(F)F)c1` (racemic) [I-796], the IC50 is 0.5 to 1 µM. Compound `CNC(=O)c1cnc(Nc2ccccc2C)c(NC(=O)c2csc3cncnc23)c1` [I-551] yielded an IC50 of 1 to 10 µM. In turn, `CNC(=O)c1cnc(Nc2ccccc2C)c(NC(=O)c2nn(C)c(C3CC3)c2F)c1` [I-439] gave an IC50 of 10 to 100 µM. Take `CNC(=O)c1cnc(Nc2ccccc2C)c(NC(=O)C2CCc3cccc(Cl)c32)c1` (stereo not shown) [I-477]: the IC50 lay within 10 to 100 µM. For the compound `CNC(=O)c1cnc(Nc2ccccc2C)c(NC(=O)c2cn3cccc(Br)c3n2)c1` [I-509], the IC50 lay in the range of 10 to 100 µM.

Consider `CNC(=O)c1cnc(Nc2ccccc2C)c(NC(=O)C(C)Cc2ccc(F)cc2)c1` (stereo not shown) [I-471], for which the concentration for half-maximal inhibition (IC50) was 10 to 100 µM. On the same count and under the same terms, to `CNC(=O)c1cnc(Nc2ccccc2C)c(N(CC(N)=O)C(=O)c2csc3ccccc23)c1` [I-776] belongs 1 to 10 µM; to `COc1ccc(SC2(C(=O)O)CC(=O)NC2c2ccccc2C)cc1` (stereo not shown) [I-549], 1 to 10 µM. For `CNC(=O)c1cnc(Nc2ccccc2C)c(NC(=O)c2cc3cc(F)ccc3o2)c1` [I-488], the IC50 fell in the range of 10 to 100 µM. In the case of `CNC(=O)c1cnc(Nc2ccccc2C)c(NC(=O)c2cc(C)cc(C#N)c2)c1` [I-556], the IC50 was 1 to 10 µM. Turning to `CNC(=O)c1cnc(Nc2ccccc2C)c(NC(=O)c2ccc3occ(Cl)c3c2)c1` [I-490], the IC50 lay within 10 to 100 µM.

With `O=C(Nc1cc(C2CC2)nn1-c1ccccc1F)c1cc(F)cc(C(F)(F)F)c1` [I-788], the IC50 was 10 to 100 µM.

As for `CNC(=O)c1cnc(Nc2ncccc2C(C)C)c(NC(=O)c2csc3ccccc23)c1` [I-731], the IC50 is 1 to 10 µM.

Compound `CNC(=O)c1cnc(Nc2ccccc2C)c(NC(=O)Cn2ccccc2=O)c1` [I-646] returned an IC50 of 1 to 10 µM.

`CNC(=O)c1cnc(Nc2ccccc2C)c(NC(=O)CCc2ccccc2F)c1` [I-437] registered an IC50 of 10 to 100 µM. The same measure, in the same setting: the figure for `CNC(=O)c1cnc(Nc2cccnc2OC)c(NC(=O)c2csc3ccccc23)c1` [I-400] is 10 to 100 µM; for `CNC(=O)c1cnc(Nc2ccccc2C)c(NC(=O)c2cc(C(F)(F)F)ccn2)c1` [I-432] it is 10 to 100 µM. `CNC(=O)c1cnc(Nc2ccccc2C)c(NC(=O)c2noc3ccccc23)c1` [I-671] registered an IC50 of 1 to 10 µM.

The compound `Cc1ccccc1Nc1ncc(C(=O)N2CC3(COC3)C2)cc1NC(=O)c1csc2ccccc12` [I-576] yielded an IC50 of 1 to 10 µM. As for `CNC(=O)c1cnc(Nc2ccccc2C)c(NC(=O)c2cnc(O)cc2C(F)(F)F)c1` [I-416], the IC50 lay in the range of 10 to 100 µM. `CNC(=O)c1cnc(Nc2ccc3c(c2)COC3)c(NC(=O)c2csc3ccccc23)c1` [I-733] had an IC50 of 1 to 10 µM. The same measure, in the same setting: to `O=C(NCc1ccccc1CN1CCCCC1)c1cc(F)cc(C(F)(F)F)c1` [I-785] belongs 10 to 100 µM.

Take `CNC(=O)c1cnc(Nc2ccccc2C)c(NC(=O)c2cc3c(Cl)cc(Cl)cc3[nH]2)c1` [I-507]: the IC50 lay within 1 to 10 µM. On the same count and under the same terms, the figure for `CNC(=O)c1cnc(Nc2ccccc2C)c(NC(=O)c2cc3cc[nH]c3cc2F)c1` [I-429] is 10 to 100 µM; for `Cc1cc(CC(C)NC(=O)c2cnc(Nc3ccccc3C)c(NC(=O)c3csc4ccccc34)c2)on1` (stereo not shown) [I-614] it is 1 to 10 µM. `CNC(=O)c1cnc(Nc2ccccc2C)c(NC(=O)C2(c3cccc(F)c3)CC2)c1` [I-475]: the IC50 fell in the range of 1 to 10 µM. `CNC(=O)c1cnc(Nc2ccccc2C)c(NC(=O)c2nn(C)c3c2CCC3)c1` [I-472] gave an IC50 of 10 to 100 µM. Turning to `CNC(=O)c1cnc(Nc2ccccc2C)c(NC(=O)c2ccc3ccccc3c2Br)c1` [I-453], the IC50 was in the range of 10 to 100 µM. Take `CNC(=O)c1cnc(Nc2ccccc2C)c(NC(=O)c2cc3cc(F)ccc3[nH]2)c1` [I-425]: the IC50 was 10 to 100 µM.

With `O=C(Nc1cc(C2CC2)nn1-c1ccccc1)c1cc(F)cc(C(F)(F)F)c1` [I-786], the IC50 was 10 to 100 µM. As to `CNC(=O)c1cnc(N[C@@H]2CCOC2)c(NC(=O)c2cc(F)cc(C(F)(F)F)c2)c1` (racemic) [I-554], the IC50 is 1 to 10 µM.
